Measured values from patent US11371077B2, “High throughput cell-based screening for aptamers” (MeiraGTx UK II Limited, priority 2016, dated 2022).
Structures can show the parent of a compound that is named as a salt. Where two headings read alike, the source gives them in different places.

Tests used:
Type in all cases: cell-based
xpt-G17 riboswitch = assay: Luciferase reporter assay, xpt-G17 riboswitch, transfected HEK 293 cells; settings: for fold induction at 100 µM: HEK293, xpt-G17 riboswitch; for response of guanine riboswitch xpt-G17 to compound (FIG. 1e): Prestwick library at 100 μM
From the text: (§1) A truncated human beta-globin intron sequence was synthesized and inserted in the coding sequence of a firefly luciferase gene. A mutant human DHFR exon 2 was synthesized and inserted in the middle of this truncated beta-globin intron sequence using Golden gate cloning strategy. Aptamers including xpt-G/A^1, ydhl-G/A^2, yxj^3, add^4, gdg6-G/A^5 (citations for the aptamers are incorporated herein by reference) were synthesized as oligonucleotides (“oligos”) with 4 nucleotide overhang at the 5′ end that are complementary to two different BsaI sites individually (IDT), annealed and ligated to BsaI-digested mDHFR-Luci-acceptor vector.
(§2) 3.5×10^4 HEK 293 cells were plated in a 96-well flat bottom plate the day before transfection. Plasmid DNA (500 ng) was added to a tube or a 96-well U-bottom plate. Separately, TransIT-293 reagent (Mirus; 1.4 μL) was added to 50 μL Opti-mem I media (Life Technologies), and allowed to sit for 5 minutes at room temperature (RT). Then, 50 μL of this diluted transfection reagent was added to the DNA, mixed, and incubated at RT for 20 min. Finally, 7 μL of this solution was added to a well of cells in the 96-well plate.
(§3) 24 hours after media change, plates were removed from the incubator, and equilibrated to RT for several minutes on a lab bench, then aspirated. Glo-lysis buffer (Promega, 100 μL, RT) was added, and the plates maintained at RT for at least 5 minutes. Then, the well contents were mixed by 50 μL trituration, and 20 μL of each sample was mixed with 20 μL of bright-glo reagent (Promega) that had been diluted to 10% in glo-lysis buffer. 96 wells were spaced on an opaque white 384-well plate. Following a 5 min incubation at RT, luminescence was measured using a Tecan machine with 500 mSec read time. The luciferase activity was expressed as mean relative light unit (RLU)±S.D., and fold induction was calculated as the luciferase activity obtained with guanine treatment divided by luciferase activity obtained without guanine treatment.

add-G6 riboswitch = assay: cells; settings: for fold induction at 100 µM: Homo sapiens
From the text: as §1
as §2, with “Separately, TransIT-293 reagent (Mirus; 1.4 μL) was added to 50 μL Opti-mem I media (Life Technologies), and allowed to sit for 5 minutes at room temperature (RT).” left out
as §3, with “The luciferase activity was expressed as mean relative light unit (RLU)±S.D., and fold induction was calculated as the luciferase activity obtained with guanine treatment divided by luciferase activity obtained without guanine treatment.” left out

ydhl-G8 riboswitch = assay: Luciferase reporter assay, ydhl-G8 riboswitch, transfected HEK 293 cells; settings: for fold induction at 100 µM: Homo sapiens
From the text: as §1
as §2, with “Separately, TransIT-293 reagent (Mirus; 1.4 μL) was added to 50 μL Opti-mem I media (Life Technologies), and allowed to sit for 5 minutes at room temperature (RT).” left out
as §3

gdg6-G8 riboswitch = assay: Luciferase reporter assay, gdg6-G8 riboswitch, transfected HEK 293 cells; settings: gdg6-G8 riboswitch, Prestwick library compounds at 100 μM, HEK 293; for fold induction at 100 µM: Homo sapiens, HEK293
From the text: (§4) Riboswitches were constructed as described in PCT/US2016/016234 (in particular Examples 3 to 6), incorporated herein by reference. A truncated human beta-globin intron sequence was synthesized and inserted in the coding sequence of a firefly luciferase gene. A mutant human DHFR exon 2 was synthesized and inserted in the middle of this truncated beta-globin intron sequence using Golden gate cloning strategy. Aptamers including xpt-G/A^1, ydhl-G/A^2, yxj^3, add^4, gdg6-G/A^5 (citations for the aptamers are incorporated herein by reference) were synthesized as oligonucleotides (“oligos”) with 4 nucleotide overhang at the 5′ end that are complementary to two different BsaI sites individually (IDT), annealed and ligated to BsaI-digested mDHFR-Luci-acceptor vector.
as §2, §3

gdg6-A8 riboswitch = assay: Luciferase reporter assay, gdg6-A8 riboswitch, transfected HEK 293 cells; settings: for fold induction at 100 µM: Homo sapiens, HEK293
From the text: as §4, §2, §3

[1] = Homo sapiens, Prestwick library compounds at 100 μM, HEK 293, preliminary screen
[2] = HEK293, read-out: Fold Induction of luciferase activity
[3] = add-G6 riboswitch, Prestwick library compounds at 100 μM, HEK 293
[4] = HEK293, add-G6 riboswitch, Prestwick library compounds at 100 μM, HEK 293, read-out: Fold Induction of luciferase activity
[5] = gdg6-A8 riboswitch, Prestwick library compounds at 100 μM, HEK 293

Nc1ncnc2c1ncn2[C@@H]1O[C@H](COP(=O)(O)O)[C@@H](O)[C@H]1O.O [Adenosine 5′-monophosphate monohydrate]
fold induction at 100 µM (xpt-G17 riboswitch; [1]): 28.4
response of guanine riboswitch xpt-G17 to compound (FIG. 1e) (xpt-G17 riboswitch; preliminary screen): responded
fold induction at 100 µM (add-G6 riboswitch; [2]): 9.4
fold induction at 100 µM (ydhl-G8 riboswitch; [2]): 5.9

C[C@@H]1[C@H](O)[C@@H](C)/C=C/C=C/C=C/C=C/C=C/C=C/C=C/[C@H](O[C@@H]2O[C@H](C)[C@@H](O)[C@H](N)[C@@H]2O)C[C@@H]2O[C@](O)(C[C@@H](O)C[C@@H](O)[C@H](O)CC[C@@H](O)C[C@@H](O)CC(=O)O[C@H]1C)C[C@H](O)[C@H]2C(=O)O [Amphotericin B]
response of guanine riboswitch xpt-G17 to compound (FIG. 1e) (xpt-G17 riboswitch; preliminary screen): responded
Fold Induction of luciferase activity (xpt-G17 riboswitch; xpt-G17 riboswitch, Prestwick library compounds at 100 μM, HEK 293, preliminary screen): 21.5 fold
Fold Induction of luciferase activity (gdg6-G8 riboswitch): 3.8 fold
Fold Induction of luciferase activity (add-G6 riboswitch; [3]): 10.7 fold
Fold Induction of luciferase activity (ydhl-G8 riboswitch; ydhl-G8 riboswitch, Prestwick library compounds at 100 μM, HEK 293): 6.5 fold

CN1CCCC(n2nc(Cc3ccc(Cl)cc3)c3ccccc3c2=O)CC1 (stereo not shown) [Azelastine hydrochloride]
fold induction at 100 µM (ydhl-G8 riboswitch; HEK293, ydhl-G8 riboswitch, Prestwick library compounds at 100 μM, HEK 293, read-out: Fold Induction of luciferase activity): 3

NC(=NCc1ccccc1)NC(=O)c1nc(Cl)c(N)nc1N [Benzamil hydrochloride]
fold induction at 100 µM (add-G6 riboswitch; [4]): 3

CC(C)COCC(CN(Cc1ccccc1)c1ccccc1)N1CCCC1 (stereo not shown) [Bepridil hydrochloride]
fold induction at 100 µM (add-G6 riboswitch; [4]): 4.4

CC[C@@]1(O)C(=O)OCc2c1cc1n(c2=O)Cc2cc3ccccc3nc2-1 [Camptothecine (S, +)]
Fold Induction of luciferase activity (add-G6 riboswitch; [3]): 5.7 fold

CC(=O)O[C@]1(C(C)=O)CC[C@H]2[C@@H]3C=C(Cl)C4=CC(=O)CC[C@]4(C)[C@H]3CC[C@@]21C [Chlormadinone acetate]
fold induction at 100 µM (xpt-G17 riboswitch; [1]): 10.3
response of guanine riboswitch xpt-G17 to compound (FIG. 1e) (xpt-G17 riboswitch; preliminary screen): responded
fold induction at 100 µM (add-G6 riboswitch; [4]): 26.1
fold induction at 100 µM (ydhl-G8 riboswitch; [2]): 10.4

CN/C(=N/CCSCc1nc[nH]c1C)NC#N [Cimetidine]
fold induction at 100 µM (gdg6-A8 riboswitch; [5]): 3

C#C[C@]1(O)CC[C@H]2[C@@H]3CCC4=Cc5oncc5C[C@]4(C)[C@H]3CC[C@@]21C [Danazol]
fold induction at 100 µM (add-G6 riboswitch; [4]): 3.7

C/C=C(/C(=C/C)c1ccc(O)cc1)c1ccc(O)cc1 [Dienestrol]
fold induction at 100 µM (gdg6-A8 riboswitch; [5]): 4.3

O=C(Nc1ccccc1)OCC(CN1CCCCC1)OC(=O)Nc1ccccc1 (stereo not shown) [Diperodon hydrochloride]
fold induction at 100 µM (gdg6-A8 riboswitch; [5]): 3

C[C@]12CC[C@@H]3c4ccc(O)cc4CC[C@H]3[C@@H]1C[C@@H](O)[C@@H]2O [Estriol]
fold induction at 100 µM (gdg6-G8 riboswitch): 4.3

O=C(OCCOCCO)c1ccccc1Nc1cccc(C(F)(F)F)c1 [Etofenamate]
fold induction at 100 µM (xpt-G17 riboswitch; [1]): 7.5
fold induction at 100 µM (add-G6 riboswitch; [4]): 5.1
fold induction at 100 µM (ydhl-G8 riboswitch; [2]): 4.8

Fc1ccc(C(c2ccc(F)cc2)N2CCN(C/C=C/c3ccccc3)CC2)cc1 [Flunarizine dihydrochloride]
fold induction at 100 µM (add-G6 riboswitch; [4]): 4.7

Clc1cc(Cl)c(OCC#CI)cc1Cl [Haloprogin]
fold induction at 100 µM (xpt-G17 riboswitch; [1]): 5.1
fold induction at 100 µM (add-G6 riboswitch; [4]): 5.9

C#C[C@]1(O)CC[C@H]2[C@@H]3CCC4=CCCC[C@@H]4[C@H]3CC[C@@]21C [Lynestrenol]
fold induction at 100 µM (add-G6 riboswitch; [4]): 3.8

COC(=O)Nc1nc2ccc(SC(C)C)cc2[nH]1 [Methiazole]
Fold Induction of luciferase activity (gdg6-A8 riboswitch; [5]): 3.8 fold
Fold Induction of luciferase activity (gdg6-G8 riboswitch): 3.3 fold

O=C(COc1ccccc1)Nc1nc2nc[nH]c2c(=O)[nH]1 [N2-Phenoxyacetyl guanine]
fold induction at 500 µM (xpt-G17 riboswitch; Homo sapiens, HEK293, 24 h, xpt-G17 construct, 500 μM concentration, FIG. 1c, 1d, read-out: fold induction of luciferase activity by guanine analogs (N2 compounds)): 1300

CNc1ncnc2c1ncn2[C@@H]1O[C@H](CO)[C@@H](O)[C@H]1O [N6-methyladenosine]
fold induction at 100 µM (xpt-G17 riboswitch; [1]): 30.7
response of guanine riboswitch xpt-G17 to compound (FIG. 1e) (xpt-G17 riboswitch; preliminary screen): responded
fold induction at 100 µM (add-G6 riboswitch; [4]): 20.8
fold induction at 100 µM (ydhl-G8 riboswitch; [2]): 10.7

NC(=O)c1ccc[n+]([C@@H]2O[C@H](COP(=O)([O-])OP(=O)(O)OC[C@H]3O[C@@H](n4cnc5c(N)ncnc54)[C@H](O)[C@@H]3O)[C@@H](O)[C@H]2O)c1 [Nadide]
fold induction at 100 µM (xpt-G17 riboswitch; [1]): ~40
response of guanine riboswitch xpt-G17 to compound (FIG. 1e) (xpt-G17 riboswitch; preliminary screen): responded
Fold Induction of luciferase activity (xpt-G17 riboswitch; xpt-G17 riboswitch, Prestwick library compounds at 100 μM, HEK 293, preliminary screen, 100 µM): 40.9 fold
fold induction at 100 µM (add-G6 riboswitch; [4]): 30.8
fold induction at 100 µM (ydhl-G8 riboswitch; [2]): 11.7

O=C(Nc1ccc([N+](=O)[O-])cc1Cl)c1cc(Cl)ccc1O [Niclosamide]
fold induction at 100 µM (add-G6 riboswitch; [4]): 3

CC(=O)O[C@]1(C(C)=O)CC[C@H]2[C@@H]3C=C(C)C4=CC(=O)CC[C@@H]4[C@H]3CC[C@@]21C [Nomegestrol acetate]
fold induction at 100 µM (add-G6 riboswitch; [4]): 3.5

CC(C)(C)NC[C@H](O)COc1ccccc1C1CCCC1 [Penbutolol sulfate]
fold induction at 100 µM (gdg6-G8 riboswitch): 3.3

CC(=O)[C@H]1CC[C@H]2[C@@H]3CCC4=CC(=O)CC[C@]4(C)[C@H]3CC[C@]12C [Progesterone]
fold induction at 100 µM (xpt-G17 riboswitch; [1]): 12
response of guanine riboswitch xpt-G17 to compound (FIG. 1e) (xpt-G17 riboswitch; preliminary screen): responded
fold induction at 100 µM (add-G6 riboswitch; [4]): 6

CNCCCC1c2ccccc2C=Cc2ccccc21 [Protriptyline hydrochloride]
fold induction at 100 µM (add-G6 riboswitch; [4]): 5

CN1CCc2cccc3c2[C@H]1Cc1ccc(O)c(O)c1-3.CN1CCc2cccc3c2[C@H]1Cc1ccc(O)c(O)c1-3.Cl.Cl.O [R(−)Apomorphine hydrochloride hemihydrate]
Fold Induction of luciferase activity (add-G6 riboswitch; [3]): 3.4 fold

Clc1ccc(C(Cn2ccnc2)OCc2csc3c(Cl)cccc23)c(Cl)c1 (stereo not shown) [Sertaconazole Nitrate]
fold induction at 100 µM (add-G6 riboswitch; [4]): 6.5

[H]/N=C(/N)NS(=O)(=O)c1ccc(N)cc1 [Sulfaguanidine]
fold induction at 100 µM (ydhl-G8 riboswitch; [2]): 13.9

COc1ccc2[nH]c([S+]([O-])Cc3ncc(C)c(OC)c3C)nc2n1 (stereo not shown) [Tenatoprazole]
fold induction at 100 µM (xpt-G17 riboswitch; [1]): 3.2

CCC(=O)O[C@H]1CC[C@H]2[C@@H]3CCC4=CC(=O)CC[C@]4(C)[C@H]3CC[C@]12C [Testosterone propionate]
fold induction at 100 µM (xpt-G17 riboswitch; [1]): 29
response of guanine riboswitch xpt-G17 to compound (FIG. 1e) (xpt-G17 riboswitch; preliminary screen): responded
fold induction at 100 µM (add-G6 riboswitch; [2]): 8.8

CCCCNc1ccc(C(=O)OCCN(C)C)cc1 [Tetracaine hydrochloride]
fold induction at 100 µM (ydhl-G8 riboswitch; [2]): 3.6

Nc1nc2nc[nH]c2c(=S)[nH]1 [Thioguanine]
response of guanine riboswitch xpt-G17 to compound (FIG. 1e) (xpt-G17 riboswitch; preliminary screen): responded

O=C(CCCCCCC(=O)Nc1ccccc1)NO [Vorinostat]
fold induction at 100 µM (gdg6-A8 riboswitch; [5]): 6.4
fold induction at 100 µM (gdg6-G8 riboswitch): 10.2
fold induction at 100 µM (add-G6 riboswitch; [4]): 3.6
fold induction at 100 µM (ydhl-G8 riboswitch; [2]): 3

CN(C)CCOC1=Cc2ccccc2Sc2ccc(Cl)cc21 [Zotepine]
fold induction at 100 µM (xpt-G17 riboswitch; [1]): 4.3

Avermectin B1
Fold Induction of luciferase activity (add-G6 riboswitch; [3]): 11.8 fold

Meclocycline sulfosalicylate
Fold Induction of luciferase activity (add-G6 riboswitch; [3]): 3.4 fold

Methotrimeprazine maleate salt
Fold Induction of luciferase activity (gdg6-A8 riboswitch; 100 µM): 5.0 fold

Tyloxapol
Fold Induction of luciferase activity (xpt-G17 riboswitch; 100 µM): 16.2 fold
response of guanine riboswitch xpt-G17 to compound (FIG. 1e) (xpt-G17 riboswitch; preliminary screen): responded
